Experimental data published in US20250332173A1, “COMPOUNDS AND METHODS FOR MODULATING NUCLEIC ACID SPLICING” (REMIX THERAPEUTICS INC., priority 2021, published 2025).
Counter-ions that a name gives are not always drawn. Like-named read-outs stand apart in the source and are kept apart here.

What was measured:
Assay type in all cases: cell-based, human
[1] = tested on: HTT; experiment: HiBiT protein abundance assay, HTT HiBiT K562 cell line; conditions: HiBiT K562 cell line, 24 hours, top dose 10 μM; read-out: Effect on protein abundance, HTT (IC50 category)
How it was run: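 Tagged-protein abundance measured by split-NanoBiT luminescence after lysis, following 24 h compound exposure (37° C; 10 μM top, 3-fold, 10 points; DMSO ≤0.25%) of HiBiT knock-in K562 cells. Percent response vs DMSO and unmodified-cell controls; 4-parameter logistic interpolation at 50% gave IC50.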

[2] = tested on: MYB mRNA; experiment: RT-qPCR splicing assay, MYB canonical junction (CJ) and alternative junction (AJ) mRNA; conditions: Homo sapiens; for AC50: increase in MYB alternative junction (AJ) mRNA, read-out: MYB AJ AC50
How it was run: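 Splicing switches were read by TaqMan RT-qPCR on lysates, quantifying exon-exon junctions of the canonical and alternative-exon isoforms. Lysates came from K562 (GAPDH/GUSB reference) or A673 (PPIA reference) cells exposed 24 h to compound in 11 threefold steps from 10 uM, with DMSO ≤0.25%.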

[3] = tested on: Target C; experiment: HiBiT protein abundance assay, Target C (Promega Nano-Glo HiBiT Lytic Detection System, knock-in K562 cell line); conditions: Homo sapiens, K562, 24 h, HiBiT K562 cell line, 24 hours, top dose 10 μM; read-out: Effect on protein abundance, Target C (IC50 category)
How it was run: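 Protein abundance was read by Nano-Glo HiBiT lytic luminescence after 24 h compound exposure (10-point, threefold series from 10 μM final) of HiBiT knock-in K562 cells. Parental K562 served as baseline; the 50%-abundance concentration was interpolated from a four-parameter logistic fit.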

[4] = Table 5 panel, canonical junction qPCR, compound concentration having 50% response in CJ decrease, read-out: MYB IC50 (decrease in CJ mRNA levels)
[5] = decrease in MYB canonical junction (CJ) mRNA, RT-qPCR, read-out: MYB CJ IC50

SMILES | IC50 [1] [µM] | IC50 [2, 4] [µM] | IC50 [2, 5] [µM] | AC50 ([2]; RT-qPCR) [µM] | IC50 [3] [µM]
CC(=O)Nc1cc(-c2cc(C)c3nc(C)cn3n2)cc2ccn([C@@H]3CCNC3)c(=O)c12 [Compound 650, N-[6-(2,8-dimethylimidazo[1,2-b]pyridazin-6-yl)-1-oxo-2-[(3R)-pyrrolidin-3-yl]-8-isoquinolyl]acetamide] | > 10 | > 10 | > 10 | > 10 | > 10
COc1cc(-c2ccc3c(=O)n(C4CCNCC4)ccc3c2)nn2cc(C)nc12 [Compound 514, 6-(8-methoxy-2-methyl-imidazo[1,2-b]pyridazin-6-yl)-2-(4-piperidyl) isoquinolin-1-one; hydrochloride] | < 0.1 | < 0.1 | < 0.1 | < 0.1 | < 0.1
Cc1cn2nc(-c3ccc4c(=O)n(C5CCNCC5)ccc4c3)cc(C(N)=O)c2n1 [Compound 523, 2-methyl-6-[1-oxo-2-(4-piperidyl)-6-isoquinolyl]imidazo[1,2-b]pyridazine-8-carboxamide] | 1 to 10 | 1 to 10 | 1 to 10 | 1 to 10 | 1 to 10
Cc1cn2nc(-c3cc(F)c4c(=O)n(C5CCN(C)CC5)ncc4c3)cc(C)c2n1 [Compound 539] | < 0.1 | < 0.1 | < 0.1 | < 0.1 | < 0.1
Cc1cn2cc(-c3cc(F)c4c(=O)n(C5CCNCC5)cnc4c3)cc(C#N)c2n1 [Compound 588] | 1 to 10 | 0.1 to 1 | 1 to 10 | 0.1 to 1 | 1 to 10
COc1cccc(Oc2cc(-c3ccc4c(=O)n(C5CCNCC5)ccc4c3)nn3cc(C)nc23)c1 [Compound 547, 6-[8-(3-methoxyphenoxy)-2-methyl-imidazo[1,2-b]pyridazin-6-yl]-2-(4 piperidyl) isoquinolin-1-one] | < 0.1 | < 0.1 | < 0.1 | < 0.1 | < 0.1
Cc1cn2nc(-c3cc(O)c4c(=O)n(C5CCN(CCF)CC5)ncc4c3)cc(C)c2n1 [Compound 553] | < 0.1 | 0.1 to 1 | 0.1 to 1 | 0.1 to 1 | 0.1 to 1
Cc1cn2nc(-c3ccc4c(=O)n(C5CCNCC5)ccc4c3)cc(CO)c2n1 [Compound 525, 6-[8-(hydroxymethyl)-2-methyl-imidazo[1,2-b]pyridazin-6-yl]-2-(4-piperidyl) isoquinolin-1-one] | < 0.1 | 0.1 to 1 | < 0.1 | 0.1 to 1 | 0.1 to 1
Cc1cn2cc(-c3cc(F)c4c(=O)n(C5CC(C)NC(C)C5)ccc4c3)cc(F)c2n1 (centres unmarked) [Compound 651] | < 0.1 | < 0.1 | < 0.1 | < 0.1 | 0.1 to 1
CN(c1ccc2c(=O)n(-c3ccc4nn(C)cc4c3)cnc2c1)C1CCNCC1 [Compound 180] | > 10 | > 10 | > 10 | > 10 | > 10
Cc1cn2nc(-c3ccc4c(=O)n(C5CCN(CCF)CC5)ncc4c3)cc(C)c2n1 [Compound 515] | 0.1 to 1 | 1 to 10 | 0.1 to 1 | 1 to 10 | 1 to 10
Cc1cn2cc(-c3cc(F)c4c(=O)n([C@@H]5CNC[C@@H]5C)ccc4c3)cc(F)c2n1 [Compound 653, 8-fluoro-6-(8-fluoro-2-methyl-imidazo[1,2-a]pyridin-6-yl)-2-[(3S,4S)-4-methylpyrrolidin-3-yl]isoquinolin-1-one] | > 10 | 1 to 10 | 1 to 10 | 1 to 10 | > 10
Cc1cn2nc(-c3ccc4c(=O)n(C5CCNCC5)ccc4c3)cc(Oc3cccc(F)c3)c2n1 [Compound 545, 6-[8-(3-fluorophenoxy)-2-methyl-imidazo[1,2-b]pyridazin-6-yl]-2-(4-piperidyl)isoquinolin-1-one; hydrochloride] | < 0.1 | < 0.1 | < 0.1 | < 0.1 | < 0.1
COC(=O)Cc1cc(-c2ccc3c(=O)n(C4CCNCC4)ccc3c2)nn2cc(C)nc12 [Compound 527] | 0.1 to 1 | 0.1 to 1 | 0.1 to 1 | 0.1 to 1 | 0.1 to 1
Cc1cn2cc(-c3ccc4c(=O)n(C5CCNCC5)ccc4c3)cc(C#N)c2n1 [Compound 560, 2-methyl-6-[1-oxo-2-(piperidin-4-yl)isoquinolin-6-yl]imidazo[1,2-a]pyridine-8-carbonitrile] | 0.1 to 1 | 0.1 to 1 | 0.1 to 1 | 0.1 to 1 | 0.1 to 1
CCc1cn(C2CCNCC2)c(=O)c2c(F)cc(-c3cc(F)c4nc(C)cn4c3)cc12 [Compound 558, 4-ethyl-8-fluoro-6-{8-fluoro-2-methylimidazo[1,2-a]pyridin-6-yl}-2-(piperidin-4-yl)isoquinolin-1-one] | 0.1 to 1 | 0.1 to 1 | 0.1 to 1 | 0.1 to 1 | 1 to 10
Cc1cn2nc(-c3cc4ncn(C5CCNCC5)c(=O)c4cc3F)cc(C)c2n1 [Compound 585, 7-{2,8-dimethylimidazo[1,2-b]pyridazin-6-yl}-6-fluoro-3-(piperidin-4-yl)quinazolin-4-one] | 1 to 10 | 1 to 10 | 1 to 10 | 1 to 10 | 1 to 10
Cc1cn2nc(-c3ccc4c(=O)n(C5CCNCC5)ccc4c3)cc(CC(N)=O)c2n1 [Compound 528, 2-(2-methyl-6-(1-oxo-2-(piperidin-4-yl)-1,2-dihydroisoquinolin-6-yl)imidazo[1,2-b]pyridazin-8-yl) acetamide] | 0.1 to 1 | 1 to 10 | 1 to 10 | 1 to 10 | 0.1 to 1
Cc1cn2nc(-c3cc(F)c4c(=O)n([C@H]5CCN(C)C6(CC6)C5)ncc4c3)cc(C)c2n1 [Compound 638] | < 0.1 | < 0.1 | 0.1 to 1 | < 0.1 | < 0.1
Cc1cn2nc(-c3ccc4c(=O)n(C5CCNCC5)ncc4c3)cc(Oc3ccccc3)c2n1 [Compound 549, 6-(2-methyl-8-phenoxy-imidazo[1,2-b]pyridazin-6-yl)-2-(4-piperidyl) phthalazin-1-one] | < 0.1 | < 0.1 | 0.1 to 1 | < 0.1 | < 0.1
Cc1cc(-c2cc(O)c3c(=O)n(C4CCNC5(CC5)C4)ncc3c2)cc2cn(C)nc12 (centres unmarked) [Compound 561] | 0.1 to 1 | 1 to 10 | 0.1 to 1 | 1 to 10 | 0.1 to 1
Cc1cn2cc(-c3cc(O)c4c(=O)n(C5CCNCC5)cnc4c3)cc(F)c2n1 [Compound 587, 7-{8-fluoro-2-methylimidazo[1,2-a]pyridin-6-yl}-5-hydroxy-3-(piperidin-4-yl)quinazolin-4-one] | 0.1 to 1 | < 0.1 | < 0.1 | < 0.1 | 0.1 to 1
Cc1cn2nc(-c3cc(F)c4c(=O)n(C5CCNC5)cnc4c3)cc(C)c2n1 (centres unmarked) [Compound 589, 7-{2,8-dimethylimidazo[1,2-b]pyridazin-6-yl}-5-fluoro-3-(pyrrolidin-3-yl)quinazolin-4-one] | 1 to 10 | 1 to 10 | 1 to 10 | 1 to 10 | > 10
Cc1cn2nc(-c3ccc4c(=O)n(C5CCNCC5)ccc4c3)cc(Oc3ccc(F)cc3)c2n1 [Compound 546, 6-[8-(4-fluorophenoxy)-2-methyl-imidazo[1,2-b]pyridazin-6-yl]-2-(4-piperidyl) isoquinolin-1-one; hydrochloride] | < 0.1 | < 0.1 | < 0.1 | < 0.1 | < 0.1
Cc1cc(-c2ccc3c(=O)n(C4CC(C)(C)NC(C)(C)C4)cnc3n2)cc2cn(C)nc12 [Compound 179] | > 10 | > 10 | > 10 | > 10 | > 10
CN1CCN(c2ccc3c(=O)n(-c4ccc5cn(C)nc5c4)cnc3c2)CC1 [Compound 178] | > 10 | > 10 | > 10 | > 10 | > 10
Cc1cn2nc(-c3ccc4c(=O)n(C5CCNCC5)cnc4c3)cc(C)c2n1 [Compound 181] | < 0.1 | 0.1 to 1 | 0.1 to 1 | 0.1 to 1 | < 0.1
Cc1nc2c(C)cc(-c3cc(F)c4c(=O)n(C5CCNC6(CC6)C5)ncc4c3)cc2o1 (centres unmarked) [Compound 555] | < 0.1 | 0.1 to 1 | 0.1 to 1 | 0.1 to 1 | 0.1 to 1
